What was measured:
[1] = test system: CXCR2, mTOR, cMYC, LC3a/b, p62 in HUVEC, HDF, and HPC cells; assay: Western blot of protein expression in somatic cells with or without MHY1485; format: cell-based, human
From the text: (§1) In order to examine whether 4,6-di-4-morpholinyl-N-(4-nitrophenyl)-1,3,5-triazin-2-amine (MHY1485, CAS Number 326914-06-1), which is an mTOR (mammalian target of rapamycin) activator, has an influence on reprogramming efficiency, reprogramming factors (OCT4, SOX2, c-Myc, KLF4; OSKM) were transduced into primary umbilical vein endothelial cells (HUVEC, ATCC #PCS-100-010), primary human dermal fibroblasts (HDF, ATCC # PCS-201-012), and human placenta derived cells (HPC) via the Sendai virus (SeV) system as shown in FIG. 1a.
(§2) Twenty-four hours after transduction, the cells were cultured for one week in a placenta-derived cell conditioned medium (PCCM) or growth medium (GM). MHY1485 was added at a dose of 2 μg/mL once per 24 hours for three weeks. After one week of the culturing in a placenta-derived cell conditioned medium (PCCM) or growth medium (GM), the cells were induced to undergo reprogramming for two weeks in Matrigel-coated culture dishes containing mTeSR medium together with MHY1485 under a general pluripotent stem cell culturing condition.
Western blotting identified the expression of CXCR2, mTOR, and cMYC. Autophagic flux activity was identified […].

[2] = test system: primary human dermal fibroblasts (HDF); assay: Reprogramming efficiency of OSKM-transduced somatic cells to iPSCs (HDF); format: cell-based
From the text: as §1, §2

[3] = test system: primary umbilical vein endothelial cells (HUVEC); assay: Reprogramming efficiency of OSKM-transduced somatic cells to iPSCs (HUVEC); format: cell-based, human
From the text: as §1, §2

[4] = test system: HUVEC, HDF, and HPC cells; assay: Reprogramming efficiency, HUVEC, HDF and HPC taken together (total of 9 dishes); format: cell-based, human
From the text: as §1, §2
HUVEC, HDF, and HPC cells were induced to undergo reprogramming by treatment with MHY1485 or in PCCM in three dishes for each cell line.

[5] = test system: human placenta derived cells (HPC); assay: Reprogramming efficiency of OSKM-transduced somatic cells to iPSCs (HPC); format: cell-based
From the text: as §1, §2

[6] = test system: LC3a/b in HUVEC, HDF, and HPC cells; assay: Immunofluorescence assay of LC3a/b (autophagy) in somatic cells; format: cell-based, human; conditions: rapamycin as control
[7] = treatment with MHY1485 vs no treatment
[8] = GM + MHY1485 (2 μg/mL once per 24 hours for three weeks)

SMILES: O=[N+]([O-])c1ccc(Nc2nc(N3CCOCC3)nc(N3CCOCC3)n2)cc1 [MHY1485, 4,6-di-4-morpholinyl-N-(4-nitrophenyl)-1,3,5-triazin-2-amine]
- expression level of p62 (indicates inactivation of autophagic flux) ([1]; treatment with MHY1485): increased
- expression of CXCR2 [1, 7]: increased
- expression of LC3a/b [1, 7]: decreased
- expression of cMYC [1, 7]: increased
- expression of mTOR [1, 7]: increased
- Reprogramming efficiency (%) [2, 8]: 0.04%
- Reprogramming efficiency (%) ([2]; hPCCM + MHY1485 (2 μg/mL)): 0.07%
- Reprogramming efficiency (%) [3, 8]: 0.13%
- Reprogramming efficiency (%) ([3]; hPCCM + MHY1485 (2 μg/mL)): 0.39%
- Reprogramming efficiency (%) ([4]; GM + MHY1485, HUVEC, HDF, HPC, three dishes each, total of 9 dishes): 0.17%
- effect of increasing reprogramming efficiency, compared to the employment of PCCM medium ([4]; MHY1485 treatment vs PCCM medium, FIG. 4 and Table 2): significantly higher
- reprogramming efficiency compared to untreated cells ([4]; all the cells (HUVEC, HDF, HPC), FIGS. 2a to 2c): increased
- Reprogramming efficiency (%) [5, 8]: 0.35%
- Reprogramming efficiency (%) ([5]; hPCCM + MHY1485 (2 μg/mL)): 0.92%
- expression of LC3a/b (inhibition of autophagy) [6]: decreased

— US20230013363A1, “COMPOSITION FOR ENHANCING REPROGRAMMING EFFICIENCY FROM SOMATIC CELL TO INDUCED PLURIPOTENT STEM CELL, COMPRISING MTOR ACTIVATOR, AND METHOD FOR ENHANCING REPROGRAMMING EFFICIENCY BY USING SAME” (KOREA UNIVERSITY RESEARCH AND BUSINESS FOUNDATION, priority 2019, published 2023)
